According to patent publication US20220056014A1, “PHENYLPYRROLIDINE COMPOUND AND USE THEREOF” (WUHAN HUMANWELL INNOVATIVE DRUG RESEARCH AND DEVELOPMENT …, priority 2018, published 2022):
Read-outs that look alike come from different tables or passages of the source.

Columns and labels:
PDE4D = biological target: T1, PDE4D (Homo sapiens, UniProt Q08499); assay: PDE4D enzyme activity assay (PDE-Glo Phosphodiesterase Assay Kit); format: biochemical
T1 construct: purchased Enzo Life Sciences BML-SE523-0020
Summary of the method: (§1)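 Recombinant human PDE4B (1 ng/μl working solution) or PDE4D (4 ng/μl working solution) preincubated 5 min at RT with compound, then reacted 20 min with cAMP (2 μM in added solution). PDE-Glo termination/detection and Kinase-Glo steps followed; luminescence read and IC50 fitted.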

PDE4B = biological target: T2, PDE4B (Homo sapiens, UniProt Q07343); assay: PDE4B enzyme activity assay (PDE-Glo Phosphodiesterase Assay Kit); format: biochemical
T2 construct: purchased Enzo Life Sciences BML-SE522-0020
Summary of the method: as §1

[1] = tested on: LPS-stimulated TNF-α release; assay: LPS-stimulated TNF-α release in mice; format: in vivo, Balb/c mice; settings: Mus musculus, oral 50 mg/kg (positive control 100 mg/kg), 1 mg/kg LPS i.p.
Procedure: 18 Balb/c mice (6 to 8 weeks) were randomly assigned to a blank group, a model group, and an administration group, 6 mice in each group. A vehicle (blank group, model group) or 50 mg/kg compound (administration group, where the dose for the positive control group was 100 mg/kg) was orally administrated. 30 min after the oral administration, PBS (blank group) or 1 mg/kg LPS (model group and administration group) was injected intraperitoneally. 90 min or 120 min after the intraperitoneal injection, blood was collected from the hearts of the mice, and still stood at 2-8° C. for 4 hours, and centrifuged at 5000 rpm for 10 min to collect the serum. The serum was stored at −80° C. for testing.
The serum TNF-α level was tested using a mouse TNF-α detection kit (Mouse TNFa ELISA kit: Biolegend, Cat: 430904). The inhibitory activity of the compounds against the TNF-α release was calculated based on the serum TNF-α level.
Inhibitory activity of compound %={1−(TNFα concentration of administration group−TNFα concentration of blank group)/(TNFα concentration of model group−TNFα concentration of blank group)}×100%.

[2] = tested on: LPS-induced secretion of TNFα in human PBMCs; assay: LPS-induced secretion of TNFα in human PBMCs; format: cell-based; settings: Homo sapiens, PBMC, 24 h, LPS 10 ng/ml
Summary of the method: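 PBMCs isolated by Lymphoprep density centrifugation were seeded at 5×10^4/well in RPMI1640 + 10% FBS and given compound, with 30 min pre-incubation, then stimulated with 10 ng/ml LPS (final). After 24 h, supernatant TNF-α was measured by ELISA kit.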

[3] = tested on: Mouse CIA arthritis model; assay: Mouse CIA arthritis model test; format: in vivo, DBA/1 mice; settings: 30 mg/kg oral, twice a day for 21 days
Procedure: (1) Preparation of Type II Collagen/Complete Freund's Adjuvant
Preparation of acetic acid: 2N acetic acid was diluted to 100 mM, filtered with 0.22 μm filter membrane, and stored at 4° C.
Preparation of bovine type II collagen solution: bovine type II collagen (CII) was dissolved in 100 mM acetic acid solution and stored at 4° C. overnight. A final concentration of collagen was 8 mg/mL.
Preparation of emulsion: the CII solution stored overnight was mixed with an equal volume of complete Freund's adjuvant, and homogenized on ice by a high-speed homogenizer at 30,000 rpm for approximately 60 min, until the solution formed a stable emulsion.
After DBA/1 mice were anesthetized with isoflurane, 50 μl of prepared collagen emulsion (containing 200 micrograms of CII) was injected subcutaneously in the tail (2-3 cm from the base of the tail) for immunization. The day of the primary immunization was recorded as day 0, and the following days were recorded sequentially. On day 21, the same volume of collagen emulsion was injected into the tail in the same way. Mice in the normal group were not immunized.
On day 21, the mice that had been induced to have arthritis were randomly grouped according to their body weights, such that the average body weight of each group was consistent, and they were randomly divided into 6 treatment groups for administration, with 10 mice in each group.
G1 group included normal mice without being treated; G2 group was given a blank vehicle; G3 to G7 groups were administrated with the compound at a dose of 30 mg/kg, twice a day for 21 days. The volume of oral administration was 10 mL/kg.
After the enhanced immunization, the disease incidence of the mice was observed every day. When the mice began to develop symptoms (clinical symptoms of arthritis emerged), the symptoms were graded as 0 to 4 according to the different degrees of pathological changes (redness, joint deformation), where the highest score for each limb was 4, and the highest score for each animal was 16. The mice were graded at least three times a week.
The area under curve (AUC) of clinical scores of each group from day 21 to day 42 was calculated, and the inhibition rate % of the clinical score AUC of the administration group was calculated:
Inhibition rate %=1−(administration group AUC/blank vehicle group AUC)*100%
The experimental data are expressed as Mean±standard error (Mean±SEM), and the clinical scores were analyzed with One-way ANOVA, where p<0.05 was considered to be a significant difference.

T2 sequence (Q07343 whole entry): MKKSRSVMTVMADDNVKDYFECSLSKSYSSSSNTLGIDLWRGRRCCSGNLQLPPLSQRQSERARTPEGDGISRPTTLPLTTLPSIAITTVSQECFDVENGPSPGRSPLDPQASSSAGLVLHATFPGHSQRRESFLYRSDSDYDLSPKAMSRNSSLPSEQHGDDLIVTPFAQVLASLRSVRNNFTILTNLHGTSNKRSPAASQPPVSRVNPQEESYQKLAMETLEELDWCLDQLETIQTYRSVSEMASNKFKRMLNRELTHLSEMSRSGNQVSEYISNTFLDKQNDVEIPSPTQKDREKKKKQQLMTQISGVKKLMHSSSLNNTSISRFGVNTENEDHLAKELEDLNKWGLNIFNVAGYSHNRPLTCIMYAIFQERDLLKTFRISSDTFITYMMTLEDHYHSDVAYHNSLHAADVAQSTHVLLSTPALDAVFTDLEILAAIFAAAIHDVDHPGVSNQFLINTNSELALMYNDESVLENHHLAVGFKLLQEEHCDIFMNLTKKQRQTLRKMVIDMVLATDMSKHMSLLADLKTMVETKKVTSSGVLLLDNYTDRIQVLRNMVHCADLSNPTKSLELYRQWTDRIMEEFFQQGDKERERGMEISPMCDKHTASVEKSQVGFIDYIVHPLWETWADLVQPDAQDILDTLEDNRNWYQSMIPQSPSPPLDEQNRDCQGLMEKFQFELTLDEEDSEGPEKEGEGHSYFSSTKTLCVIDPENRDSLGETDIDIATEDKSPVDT
T1 sequence (Q08499 whole entry): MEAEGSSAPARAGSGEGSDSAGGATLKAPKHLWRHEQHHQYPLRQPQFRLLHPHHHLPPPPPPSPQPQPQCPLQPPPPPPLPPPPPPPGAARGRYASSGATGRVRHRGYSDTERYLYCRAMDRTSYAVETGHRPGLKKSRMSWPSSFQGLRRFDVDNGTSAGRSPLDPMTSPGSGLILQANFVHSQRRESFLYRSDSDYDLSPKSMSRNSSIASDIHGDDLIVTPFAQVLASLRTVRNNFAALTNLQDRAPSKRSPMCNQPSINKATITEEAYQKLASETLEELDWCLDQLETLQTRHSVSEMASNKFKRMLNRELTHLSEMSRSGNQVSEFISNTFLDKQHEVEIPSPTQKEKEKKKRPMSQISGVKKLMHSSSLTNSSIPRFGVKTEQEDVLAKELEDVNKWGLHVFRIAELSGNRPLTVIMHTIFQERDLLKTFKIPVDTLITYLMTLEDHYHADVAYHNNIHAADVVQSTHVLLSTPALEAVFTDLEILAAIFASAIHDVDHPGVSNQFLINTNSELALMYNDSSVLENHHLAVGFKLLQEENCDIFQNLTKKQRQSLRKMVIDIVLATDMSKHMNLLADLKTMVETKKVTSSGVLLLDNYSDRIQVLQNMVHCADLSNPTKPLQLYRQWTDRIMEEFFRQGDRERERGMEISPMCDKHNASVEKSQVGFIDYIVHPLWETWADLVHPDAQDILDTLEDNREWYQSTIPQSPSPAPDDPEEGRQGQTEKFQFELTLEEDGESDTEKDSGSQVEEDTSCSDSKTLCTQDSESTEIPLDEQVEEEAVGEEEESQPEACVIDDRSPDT

CCc1ccc(N2CC(Oc3cc([C@@H]4CN(C(=O)[C@@H](O)CO)C[C@@]4(C)[C@@H](C)O)ccc3OC)C2)nc1 [Compound 031, (S)-1-((3S,4S)-4-(3-((1-(5-ethylpyridin-2-yl)azetidin-3-yl)oxy)-4-methoxyphenyl)-3-((R)-1-hydroxyethyl)-3-methylpyrrolidin-1-yl)-2,3-dihydroxypropan-1-one]
IC50 (PDE4D): 2.56 nM | IC50 (PDE4B): 1.87 nM | IC50 (PDE4D)/IC50 (PDE4B) (PDE4B; selectivity ratio): 1.37 | inhibition in vivo at 50 mg/kg ([1]; 1.5 h, blood 90 min after LPS, read-out: Inhibition rate (%) of LPS-stimulated TNF-α release, 90 min): 64.8% | inhibition in vivo at 50 mg/kg ([1]; 2 h, blood 120 min after LPS, read-out: Inhibition rate (%) of LPS-stimulated TNF-α release, 120 min): 78.3% | IC50 [2]: 0.7 nM | inhibition rate based on clinical score AUC ([3]; AUC day 21 to day 42): 85.0% | Clinical score (endpoint) ([3]; day 42, highest score 16): 2.1
